Source: patent US20230255954A1, “INTERLEUKIN 33 (IL-33) INHIBITION FOR TREATMENT OF CANCER, FIBROSIS AND INFLAMMATION” (The General Hospital Corporation, priority 2020, published 2023)

Assays:
[1] = tested on: endogenous Il33 expression in PyMT breast cancer cell line; assay: Endogenous Il33 RNA in PyMT breast cancer cell line; format: cell-based, mouse
Experimental: Pam212 cells were grown at 37° C. in DMEM (Thermo Fisher Scientific, Waltham, Mass., catalog no. 11995065) supplemented with 10% fetal bovine serum (Thermo Fisher Scientific, catalog no. 26140079), 1× penicillin-streptomycin-glutamine (Thermo Fisher Scientific, catalog no. 10378016), 1×MEM non-essential amino acids solution (Thermo Fisher Scientific, catalog no. 11140050), 1×HEPES (Thermo Fisher Scientific, catalog no. 15630080) and 0.1% 2-Mercaptoethanol (Thermo Fisher Scientific, catalog no. 21985023). […]
Mouse dorsal skin samples were homogenized and lysed in RLT lysis solution (QIAGEN, catalog no. 79216)/0.1% MeOH using Mini-BeadBeater-8 (BioSpec Products, Inc., Bartlesville, Okla.). Total RNA was extracted using an RNeasy micro kit and quantified using NanoDrop ND-1100 (NanoDrop Technologies, Wilmington, Del.). cDNA samples were synthesized from 1 μg of total RNA using Invitrogen SuperScripts III Reverse Transcriptase (Thermo Fisher Scientific, catalog no. 18080085). Expression levels of all cDNA samples were determined with LightCycler 480 system (Roche Molecular Systems Inc., Pleasanton, Calif.) using TaqMan Universal Master Mix II (Thermo Fisher Scientific, catalog no. 44-400-40). […]

[2] = tested on: Caerulein-injected mouse pancreas; assay: Caerulein chronic pancreatitis model with pitavastatin; format: in vivo
Experimental: Mice were weighed and injected with 50 μg/kg caerulein (BACHEM, Torrance, Calif., catalog no. 4030451) in 100 μL of PBS intraperitoneally every hour for 6 hours, three days per week for 3 weeks and mice were harvested.
1 mM of pitavastatin was dissolved in DMSO for stock, and then 100 uM was dissolved in PBS with caerulein for mice injection. Mice were injected with caerulein.
Tissue samples were collected and fixed in 4% paraformaldehyde (Millipore Sigma, catalog no. P6148) overnight at 4° C. Next, tissues were dehydrated in ethanol, processed and embedded in paraffin. 5 μm sections paraffin-embedded tissues were placed on slides, deparaffinized and stained with H&E or toluidine blue (for mast cell detection). For immunohistochemistry, antigen retrieval was performed in 500 μL of antigen unmasking solution (VECTOR Laboratories, Burlingame, Calif., catalog no. H3300) diluted in 50 mL water using Cuisinart pressure cooker for 20 min at high pressure. Slides were washed three times for three minutes each in 1×TBS with 0.025% Triton X-100. Sections were blocked with 1% bovine serum albumin (Thermo Fisher Scientific, catalog no. BP1600) and 5% goat serum (Millipore Sigma, catalog no. G9023) for 1 hour. Slides were stained overnight at 4° C. with a primary antibody diluted in TBS containing 1% BSA (Appendix Table S2). […]

O=C(O)C[C@H](O)C[C@H](O)/C=C/c1c(C2CC2)nc2ccccc2c1-c1ccc(F)cc1 [pitavastatin]
endogenous Il33 RNA level [1]: inhibitory effect
severity of pancreatitis ([2]; 100 uM pitavastatin in PBS injected with caerulein, vs severe pancreatitis in caerulein plus carrier): mild pancreatitis
inflammatory cell infiltrates in pancreas (H&E) ([2]; Caerulein-injected mouse pancreas with or without pitavastatin): reduction
